{"source": "patent US7763752B2", "about": "“Amino alcohol derivatives, salts thereof and immunosuppresive agents” (Kyorin Pharmaceutical Co., Ltd., priority 2002, dated 2010)", "key": {"[1]": {"system": "Host vs Graft Reaction in Mice", "test": "Inhibitory effects of test compounds on host vs graft reaction in mice (popliteal lymph node weight)", "type": "in vivo, C3H/HeN mice", "experimental": "Inhibitory Effects of Test Compounds on Host vs Graft Reaction in Mice\nThis experiment was performed according to the method described in Transplantation 55(3) (1993): 578-591. Spleens were collected from 7 to 12 week old male BALB/c mice (available from CLEA JAPAN Inc., CHARLES RIVER JAPAN Inc., or JAPAN SLC Inc.). The spleens were placed in an RPMI-1640 medium (SIGMA, GIBCO […] Inc., or IWAKI GLASS Co., Ltd.) and were gently pressed between two slide glasses and then passed through a cell strainer (70 μm, Falcon) to form a cell suspension. The suspension was then centrifuged and the supernatant was discarded. An ammonium chloride-Tris isotonic buffer was added to the suspension to lyse erythrocytes. The cells were then centrifuged three times in RPMI-1640 medium for washing and were resuspended in an RPMI-1640 medium. To this suspension, mitomycin C (KYOWA HAKKO KOGYO Co., Ltd.) was added to a final concentration of 25 μg/mL and the suspension was incubated for 30 minutes at 37° C. in a 5% CO2 atmosphere. The cells were centrifuged three times in RPMI-1640 medium for washing and were resuspended in an RPMI-1640 medium so that the medium would contain 2.5×10^8 cells/mL. This suspension served as a “stimulation cell suspension.” Using a 27 G needle, along with a microsyringe (Hamilton), 20 μL (5×10^6 cells/mouse) of the stimulation cell suspension was subcutaneously injected into the right hind footpad of 6 to 12 week old male C3H/HeN mice (CLEA JAPAN Inc., CHARLES RIVER JAPAN Inc., or JAPAN SLC Inc.). As a normal control group, a group of mice were injected with RPMI-1640 medium alone. 4 days after the injection, right popliteal lymph nodes were collected and were weighed on a Mettler AT201 electronic scale (METTLER TOLEDO Co., Ltd.). Each animal was intraperitoneally administered a test compound once a day for four consecutive days starting on the day of the injection of the stimulation cells (i.e., total of 4 times). As a control group, a group of the animals were administered the same solvent as that used in the preparation of each test compound."}, "[2]": {"conditions": "Mus musculus, ip, dose 0.03 mg/kg"}, "[3]": {"conditions": "Mus musculus, ip, dose 0.1 mg/kg"}}, "note": "Where a name gives a salt, the structure may show the parent alone.", "data": [{"compound": "CC(=O)NC(CO)CCc1ccc(Sc2cccc(OCc3ccccc3)c2)cc1Cl", "note": "(stereo not shown) [Example 201, 2-acetylamino-4-[4-(3-benzyloxyphenylthio)-2-chlorophenyl]butane-1-ol]", "values": [{"measurement": "melting point", "value": "78 to 81", "unit": "°C"}]}, {"compound": "CCC(N)=C(CO)CCCc1ccc(Sc2cccc(OCc3ccccc3)c2)cc1Cl", "note": "[Example 227, 3-amino-7-[4-(3-benzyloxyphenylthio)-2-chlorophenyl]-4-hydroxymethyl-3-heptene hydrochloride]", "values": [{"measurement": "inhibition in vivo at 0.3 mg/kg", "setting": "[1]; Mus musculus, ip", "value": 58, "unit": "%"}]}, {"compound": "CCCC(N)(CO)CCCc1ccc(Sc2cccc(OCc3ccccc3)c2)cc1Cl", "note": "(stereo not shown) [Example 197]", "values": [{"measurement": "inhibition in vivo at 0.03 mg/kg", "setting": "[1]; [2]", "value": 54, "unit": "%"}]}, {"compound": "CCC(N)(CO)CCCc1ccc(Sc2cccc(OCc3ccccc3)c2)cc1Cl", "note": "(racemic) [Example 188, (±)-2-amino-5-[4-(3-benzyloxyphenylthio)-2-chlorophenyl]-2-ethylpentane-1-ol hydrochloride]", "values": [{"measurement": "inhibition in vivo at 0.1 mg/kg", "setting": "[1]; [3]", "value": 78, "unit": "%"}]}, {"compound": "CC(O)C(CCCc1ccc(Oc2cccc(OCc3ccccc3)c2)cc1Cl)NC(=O)OC(C)(C)C", "note": "(stereo not shown) [Example 131, 6-[4-(3-benzyloxyphenoxy)-2-chlorophenyl]-3-t-butoxycarbonylaminohexane-2-ol]", "values": [{"measurement": "inhibition in vivo at 0.3 mg/kg", "setting": "[1]; Mus musculus, ip", "value": 57, "unit": "%"}]}, {"compound": "Cl.NC(CO)CCCc1ccc(S(=O)(=O)c2cccc(OCc3ccccc3)c2)cc1Cl", "note": "(stereo not shown)", "values": [{"measurement": "melting point", "value": "154 to 156", "unit": "°C"}]}, {"compound": "CC(O)C(N)CCCc1ccc(Sc2cccc(OCc3ccccc3)c2)cc1Cl", "note": "(stereo not shown) [Example 135, 3-amino-6-[4-(3-benzyloxyphenylthio)-2-chlorophenyl]hexane-2-ol hydrochloride]", "values": [{"measurement": "inhibition in vivo at 1 mg/kg", "setting": "[1]; Mus musculus, ip, dose 1 mg/kg", "value": 69, "unit": "%"}]}, {"compound": "CC(N)(CO)CCCc1ccc(Sc2cccc(OCc3ccccc3)c2)cc1Cl", "note": "(single isomer, unassigned; (+)) [Example 185, (+)-2-amino-5-[4-(3-benzyloxyphenylthio)-2-chlorophenyl]-2-methylpentane-1-ol]", "values": [{"measurement": "Inhibition (%)", "setting": "[1]; dose 0.1 mg/kg", "value": 88, "unit": "%"}]}, {"compound": "NC(CO)(CCO)CCCc1ccc(Sc2cccc(OCc3ccccc3)c2)cc1Cl", "note": "(stereo not shown) [Example 148, 3-amino-6-[4-(3-benzyloxyphenylthio)-2-chlorophenyl]-3-hydroxymethylhexanol hydrochloride]", "values": [{"measurement": "inhibition in vivo at 0.3 mg/kg", "setting": "[1]; Mus musculus, ip", "value": 71, "unit": "%"}]}, {"compound": "Cl.NC(CO)CCCc1ccc(Sc2cccc(C(F)(F)F)c2)cc1Cl", "note": "(stereo not shown)", "values": [{"measurement": "melting point", "value": "166 to 168", "unit": "°C"}]}, {"compound": "CCCC(N)(CO)CCCc1ccc(Sc2cccc(OCc3ccccc3)c2)cc1Cl.Cl", "note": "(single isomer, unassigned; (+)) [Example 209, (+)-2-amino-5-[4-(3-benzyloxyphenylthio)-2-chlorophenyl]-2-propylpentane-1-ol]", "values": [{"measurement": "melting point", "value": "55 to 57", "unit": "°C"}, {"measurement": "Inhibition (%)", "setting": "[1]; dose 0.03 mg/kg", "value": 71, "unit": "%"}]}, {"compound": "CCC(N)(CO)CCCc1ccc(Sc2cccc(OCc3ccccc3)c2)cc1Cl", "note": "(single isomer, unassigned; (+)) [Example 189, (+)-2-amino-5-[4-(3-benzyloxyphenylthio)-2-chlorophenyl]-2-ethylpentane-1-ol]", "values": [{"measurement": "inhibition in vivo at 0.03 mg/kg", "setting": "[1]; [2]", "value": 71, "unit": "%"}]}, {"compound": "CC(N)(CO)CCc1ccc(Sc2cccc(OCc3ccccc3)c2)cc1Cl.Cl", "note": "(single isomer, unassigned; (+)) [Example 191, (+)-2-amino-4-[4-(3-benzyloxyphenylthio)-2-chlorophenyl]-2-methylbutane-1-ol hydrochloride]", "values": [{"measurement": "Inhibition (%)", "setting": "[1]; dose 0.1 mg/kg, hydrochloride", "value": 41, "unit": "%"}]}, {"compound": "CC(N)(CO)CCCc1ccc(Sc2cccc(OCc3ccccc3)c2)cc1Cl", "note": "(single isomer, unassigned; (+)) [Example 184, (+)-2-amino-5-[4-(3-benzyloxyphenylthio)-2-chlorophenyl]-2-methylpentane-1-ol]", "values": [{"measurement": "Inhibition (%)", "setting": "[1]; dose 0.1 mg/kg", "value": 45, "unit": "%"}]}, {"compound": "OCC(CCCc1ccc(Oc2cccc(C(F)(F)F)c2)cc1)Nc1ccccc1", "note": "(stereo not shown) [Example 127, 2-phenylamino-5-[4-(3-trifluoromethylphenoxy)phenyl]pentane-1-ol]", "values": [{"measurement": "inhibition in vivo at 10 mg/kg", "setting": "[1]; Mus musculus, ip, dose 10 mg/kg", "value": 57, "unit": "%"}]}, {"compound": "CCC(N)(CO)CCc1ccc(Sc2cccc(OCc3ccccc3)c2)cc1Cl", "note": "(single isomer, unassigned; (-)) [Example 196, (−)-2-amino-4-[4-(3-benzyloxyphenylthio)-2-chlorophenyl]-2-ethylbutane-1-ol]", "values": [{"measurement": "inhibition in vivo at 0.03 mg/kg", "setting": "[1]; [2]", "value": 63, "unit": "%"}]}, {"compound": "CC(C)CC(N)(CO)CCCc1ccc(Sc2cccc(OCc3ccccc3)c2)cc1Cl", "note": "(stereo not shown) [Example 223, 2-amino-5-[4-(3-benzyloxyphenylthio)-2-chlorophenyl]-2-isobutylpentane-1-ol hydrochloride]", "values": [{"measurement": "inhibition in vivo at 0.3 mg/kg", "setting": "[1]; Mus musculus, ip", "value": 70, "unit": "%"}]}, {"compound": "CCC(N)(CO)CCc1ccc(Sc2cccc(OCc3ccccc3)c2)cc1Cl", "note": "(racemic) [Example 194, (±)-2-amino-4-[4-(3-benzyloxyphenylthio)-2-chlorophenyl]-2-ethylbutane-1-ol]", "values": [{"measurement": "inhibition in vivo at 0.1 mg/kg", "setting": "[1]; [3]", "value": 70, "unit": "%"}]}, {"compound": "CC(N)(CO)CCc1ccc(Sc2cccc(OCc3ccccc3)c2)cc1Cl.Cl", "note": "(single isomer, unassigned; (+)) [Example 192, (+)-2-amino-4-[4-(3-benzyloxyphenylthio)-2-chlorophenyl]-2-methylbutane-1-ol hydrochloride]", "values": [{"measurement": "Inhibition (%)", "setting": "[1]; dose 0.1 mg/kg, hydrochloride", "value": 86, "unit": "%"}]}, {"compound": "C#CCC(N)(CO)CCCc1ccc(Sc2cccc(OCc3ccccc3)c2)cc1Cl", "note": "(stereo not shown) [Example 222, 2-amino-5-[4-(3-benzyloxyphenylthio)-2-chlorophenyl]-2-propargylpentane-1-ol hydrochloride]", "values": [{"measurement": "inhibition in vivo at 0.3 mg/kg", "setting": "[1]; Mus musculus, ip", "value": 57, "unit": "%"}]}, {"compound": "NC(CO)(CCCO)CCCc1ccc(Sc2cccc(OCc3ccccc3)c2)cc1Cl", "note": "(stereo not shown) [Example 151, 4-amino-7-[4-(3-benzyloxyphenylthio)-2-chlorophenyl]-4-hydroxymethylheptanol hydrochloride]", "values": [{"measurement": "inhibition in vivo at 0.03 mg/kg", "setting": "[1]; [2]", "value": 65, "unit": "%"}]}]}
